According to the SangsterLogP compilation:

Structure (SMILES) | logP
ClCC(Cl)CCC(Cl)C(Cl)CCC(Cl)CCl (configuration not stated) | 4.02
CC(Cl)CCC(Cl)C(Cl)CCC(Cl)CCl (configuration not stated) | 4.19
CCCCC(Cl)C(Cl)CCC(Cl)CCl (configuration not stated) | 4.93
ClC(CCC(Cl)C(Cl)CCC(Cl)CC(Cl)(Cl)Cl)CC(Cl)(Cl)Cl (configuration not stated) | 6.72
CC(Cl)CCC(Cl)C(Cl)CCC(C)Cl (configuration not stated) | 4.4

The remaining lines, values ahead:

logP | Structure (SMILES)
7.75 | ClC(CCCCCCC(Cl)CC(Cl)(Cl)Cl)CC(Cl)(Cl)Cl (configuration not stated)
5.01 | ClCC(Cl)CCCCCCC(Cl)CCl (configuration not stated)
5.4 | ClCC(Cl)CCC(Cl)C(Cl)CCC(Cl)CC(Cl)(Cl)Cl (configuration not stated)
6.42 | ClCC(Cl)CCCCCCC(Cl)CC(Cl)(Cl)Cl (configuration not stated)
6.71 | ClC(CCCCC(Cl)CC(Cl)(Cl)Cl)CC(Cl)(Cl)Cl (configuration not stated)
4.2 | ClCC(Cl)CCC(Cl)C(Cl)(Cl)CCC(Cl)CCl (configuration not stated)
7.23 | ClC(CCCCCC(Cl)CC(Cl)(Cl)Cl)CC(Cl)(Cl)Cl (configuration not stated)
